Experimental data published in patent US9101564B2, “Heparanase activity inhibitor, wrinkle improving agent containing same, and pharmaceutical composition” (Shiseido Company, Ltd., priority 2009, dated 2015).

Molecular target: T1, heparanase (Homo sapiens, UniProt Q9Y251)
T1 construct: the supernatant was recovered as cell extract; endogenous in cells; host or cells: A431 (human epithelial carcinoma cells), Triton X-100 lysate
T1 sequence (Q9Y251 158-543 limits assumed): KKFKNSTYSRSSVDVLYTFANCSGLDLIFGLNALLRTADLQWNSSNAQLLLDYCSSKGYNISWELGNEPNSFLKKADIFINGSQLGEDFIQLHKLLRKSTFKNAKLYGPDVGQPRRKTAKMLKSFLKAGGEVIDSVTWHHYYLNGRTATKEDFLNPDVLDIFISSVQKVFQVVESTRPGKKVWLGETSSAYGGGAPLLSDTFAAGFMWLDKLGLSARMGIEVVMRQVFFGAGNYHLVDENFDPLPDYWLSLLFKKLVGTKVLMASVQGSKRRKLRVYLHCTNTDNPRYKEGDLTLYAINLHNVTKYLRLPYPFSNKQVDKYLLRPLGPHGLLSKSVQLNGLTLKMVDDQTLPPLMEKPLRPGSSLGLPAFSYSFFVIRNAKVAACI
T1 sequence (Q9Y251 36-109 limits assumed): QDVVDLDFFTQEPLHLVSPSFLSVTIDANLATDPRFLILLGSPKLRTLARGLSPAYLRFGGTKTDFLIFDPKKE
Assay: Heparanase activity inhibition rate, A431 cell extract on biotinylated heparan sulfate-immobilized plate
Type: biochemical
Conditions: A431 cell extract 500 μg/mL, 37° C., 2 hours, DMSO 5%
Procedure: A431 cells (human epithelial carcinoma cells) were cultured in 10% serum-containing DMEM (Dulbecco's modified Eagle medium). The cultured cells were solubilized in lysis buffer (50 mM Tris, 0.5% TritonX-100, 0.15 M sodium chloride, pH 4.5) and collected with a scraper, and then pipetted and allowed to stand on ice for 30 minutes. This was followed by centrifugation at 10,000 rpm for 10 minutes to remove the insoluble portion, and the supernatant was recovered as cell extract. The amount of protein in the cell extract was measured with a BCA protein assay kit (BCA Protein Assay Kit, PIERCE, Calif. 46141).
The A431 cell extract was then diluted to 500 μg/mL with assay buffer (50 mM HEPES, 50 mM sodium acetate, 150 mM sodium chloride, 9 mM calcium chloride, 0.1% BSA). Next, the test compound was dissolved in DMSO and added to the diluted cell extract in proportions of 0.0005 mass %, 0.005 mass % and 0.05 mass %, and these were mixed to prepare sample solutions (DMSO final concentration: 5%). A control solution was prepared by mixing DMSO with the diluted cell extract to a final concentration of 5%. The sample solution and control solution were each seeded in a biotinylated heparan sulfate-immobilized plate at 100 μL/well. […] After further rinsing 3 times with PBS-T, TMB reagent (BIO-RAD, 172-1066) was added at 100 μL/well and reacted therewith, the reaction was terminated with 1N sulfuric acid, and the absorbance at 475 nm (OD475) was measured.
Also, DMSO was added to a serial diluent prepared with the aforementioned A431 cell extract assay buffer (cell extract concentrations: 500 μg/mL, 50 μg/mL, 5 μg/mL, 0.5 μg/mL), to a final concentration of 5% without addition of the test compound, to obtain a mixture (solution for calibration curve). The solution for the calibration curve was subjected to treatment by the same procedure described above, from seeding of the biotinylated heparan sulfate-immobilized plate, and the OD475 was measured. […]

- Heparanase activity inhibition rate (added concentration 0.0005 mass %): 37.64%
- Heparanase activity inhibition rate (added concentration 0.005 mass %): 75.98%
- Heparanase activity inhibition rate (added concentration 0.05 mass %): 94.74%
SMILES: CC(C)Cc1ccc(O)cc1O [4-Isobutylresorcinol, 4-isobutylresorcinol]
